# Results as given in patent US20240376099A1, “COMPOUNDS AND COMPOSITIONS AS INHIBITORS OF ENDOSOMAL TOLL-LIKE RECEPTORS” (Novartis AG, priority 2016, published 2024).
# pIC50: −log10 of the molar value.
# Molecular target: T1, TLR8 (Homo sapiens, UniProt Q9NR97)
# T1 sequence (Q9NR97 27-1041): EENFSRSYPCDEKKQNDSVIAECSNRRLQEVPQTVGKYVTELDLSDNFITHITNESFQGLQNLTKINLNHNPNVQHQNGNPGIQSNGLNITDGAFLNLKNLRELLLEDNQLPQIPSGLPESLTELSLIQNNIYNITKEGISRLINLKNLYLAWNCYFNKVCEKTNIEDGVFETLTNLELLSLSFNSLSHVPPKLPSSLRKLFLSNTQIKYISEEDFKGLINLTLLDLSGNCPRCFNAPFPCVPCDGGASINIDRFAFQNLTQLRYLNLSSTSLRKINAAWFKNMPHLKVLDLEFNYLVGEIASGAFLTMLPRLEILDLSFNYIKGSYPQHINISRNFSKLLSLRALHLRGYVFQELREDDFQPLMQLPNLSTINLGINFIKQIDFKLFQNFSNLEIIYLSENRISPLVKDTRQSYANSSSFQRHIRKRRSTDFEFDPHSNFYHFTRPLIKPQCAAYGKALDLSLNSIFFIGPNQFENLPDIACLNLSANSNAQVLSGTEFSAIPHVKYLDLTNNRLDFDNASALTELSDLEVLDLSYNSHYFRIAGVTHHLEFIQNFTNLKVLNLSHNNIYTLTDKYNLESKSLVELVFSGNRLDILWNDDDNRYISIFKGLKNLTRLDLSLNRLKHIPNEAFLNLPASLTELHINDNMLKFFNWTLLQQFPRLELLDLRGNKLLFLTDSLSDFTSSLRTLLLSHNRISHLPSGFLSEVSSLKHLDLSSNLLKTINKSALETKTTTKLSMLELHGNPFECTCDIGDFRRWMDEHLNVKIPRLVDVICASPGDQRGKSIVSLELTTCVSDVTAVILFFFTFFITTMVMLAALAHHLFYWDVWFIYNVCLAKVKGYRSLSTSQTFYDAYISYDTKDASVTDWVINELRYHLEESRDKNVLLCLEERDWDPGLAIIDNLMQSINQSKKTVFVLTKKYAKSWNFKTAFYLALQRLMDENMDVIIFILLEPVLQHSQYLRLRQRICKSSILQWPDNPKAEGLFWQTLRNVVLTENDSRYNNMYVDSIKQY
# Test: THP-1 TLR8 Antagonist TNFalpha TR-FRET Assay
# Format: cell-based
# Parameters: endogenous in cells
# Settings: THP-1 cells with R848 agonist, 18-20 hrs; TNFalpha TR-FRET read-out
# Method: Cell-based assay: • 1) THP-1cells were cultured in RPMI 1640 with 10% FBS, 10 mM HEPES, 1 mM Sodium Pyruvate, 1% Penicillin-Streptomycin L-glutamine, and 1% Non-Essential Amino Acids; • 2) 3 sets of different passages of THP-1cells in assay media were pooled, counted, and resuspended in the same media as culture media, but with 5% FBS; • 3) Cells were diluted to 100,000 cells/well (30 μl/well) and the R848 agonist was diluted to 25 μM in 10 μl/well in media; • 4) The cell and agonist dilutions were combined and 40 μl/well were added to 384-well flat bottom Greiner assay plates containing test compounds in DMSO, which were Echo pre-spotted at 50 nL per well with a 8 mM top dose and 10 point 1:3 serial dilutions—10 μM final top dose; • 5) The plates were incubated overnight for 18-20 hrs at 37 degrees with 5% CO2; • 6) The plates were then centrifuged at 1000 rpm for 2 min at rt; • 7) 10 μl/well of supernatants were transferred to 384-well low volume white Greiner proxiplates; and • 8) TNFα levels were measured using the TR-FRET assay described below.
# • 1) Cisbio Human TNFalpha kit, 20,000 tests (62TNFPEC), and Greiner Bio-One LIA-white TC 384 well small volume plates (cat #784080) were used; • 2) the Anti-TNFalpha Cryptate conjugate and the Anti-TNFalpha XL665 conjugate were diluted 1:20 in Reconstitution Buffer; • 3) a 1:1 mixture of 5 μl/well Anti-TNFalpha Cryptate conjugate and 5 μl/well Anti-TNFalpha XL665 conjugate was prepared; • 4) 10 μl/well HTRF dilution mastermix were added to 10 μl of transferred supernatant samples in proxiplates; • 5) The plates were incubated for 3 hrs at rt in the dark; and • 6) the levels of TNFalpha production was measured using an Envision plate reader (665 nm (emmission)/590 nm (excitation)).
row,SMILES,pIC50
1,"Cc1c2c(nn1CC13CCC(N)(CC1)CC3)CCN(c1nc(N)nc3c1cnn3C)C2 [compound 14, 4-(2-((4-aminobicyclo[2.2.2]octan-1-yl)methyl)-3-methyl-6,7-dihydro-2H-pyrazolo[4,3-c]pyridin-5(4H)-yl)-1-methyl-1H-pyrazolo[3,4-d]pyrimidin-6-amine]",< 5.00
2,"Cn1ncc2c(N3CCc4nn(CC56CCC(N)(CC5)CC6)cc4C3)nc(N)nc21 [compound 12, 4-(2-((4-aminobicyclo[2.2.2]octan-1-yl)methyl)-6,7-dihydro-2H-pyrazolo[4,3-c]pyridin-5(4H)-yl)-1-methyl-1H-pyrazolo[3,4-d]pyrimidin-6-amine]",< 5.00
3,"Cn1ncc2c(N3CCc4c(cnn4CC45CCC(N)(CC4)CC5)C3)nc(N)nc21 [compound 11, 4-(1-((4-aminobicyclo[2.2.2]octan-1-yl)methyl)-6,7-dihydro-1H-pyrazolo[4,3-c]pyridin-5(4H)-yl)-1-methyl-1H-pyrazolo[3,4-d]pyrimidin-6-amine]",5.08
